# According to patent US20240059671A1, “TYROSINE KINASE 2 (TYK2) DEGRADATION COMPOUNDS AND METHODS OF USE” (CULLGEN (SHANGHAI), INC., priority 2020, published 2024):
# Columns and labels:
# TYK2 [1] = target: T1, TYK2 (Homo sapiens, UniProt P29597); test: TYK2 protein degradation in NOMO-1 cells by immunoblotting; assay type: cell-based; parameters: endogenous in cells; details: NOMO-1 cells
# Method: NOMO-1 cells were treated with CPD-155, CPD-157, and CPD-158 at 0.1, 1, 10, 100 and 1000 nM concentrations for 16 hours. […] Data shown that CPD-155, CPD-157, and CPD-158 are very potent at the reduction protein levels of TYK2.
# MOLT-4 or NOMO-1 cells were cultured at 37° C. with 5% CO2 in RPMI 1640 Medium supplemented with 10% fetal bovine serum. Cells were authenticated using the short tandem repeat (STR) assays. Mycoplasma test results were negative.
# Cultured cells were washed with cold PBS once and lysed in cold RIPA buffer supplemented with protease inhibitors and phosphatase inhibitors (Beyotime Biotechnology). The solutions were then incubated at 4° C. for 30 minutes with gentle agitation to fully lyse cells. Cell lysates were centrifuged at 13,000 rpm for 10 minutes at 4° C. and pellets were discarded. Total protein concentrations in the lysates were determined by BCA assays (Beyotime Biotechnology). Cell lysates were mixed with Laemmli loading buffer to 1× and heated at 99° C. for 5 min. Proteins were resolved on SDS-PAGE and visualized by chemiluminescence. Images were taken by a ChemiDoc MP Imaging system (Bio-Rad). Protein bands were quantitated using the accompanied software provided by Bio-Rad.
# TYK2 [2] = target: T1, TYK2; test: TYK2 protein degradation in MOLT-4 cells by immunoblotting; assay type: cell-based; parameters: endogenous in cells; host or cells: MOLT-4; details: MOLT-4 cells, 24 hours
# Procedure, shortened: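 MOLT-4 cells were exposed to compounds at 0.5 and 5 μM for 24 h, then lysed in RIPA buffer with protease and phosphatase inhibitors. TYK2 was detected by SDS-PAGE immunoblot with chemiluminescence, and band densitometry gave percent degradation.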
# T1 sequence (P29597 whole entry): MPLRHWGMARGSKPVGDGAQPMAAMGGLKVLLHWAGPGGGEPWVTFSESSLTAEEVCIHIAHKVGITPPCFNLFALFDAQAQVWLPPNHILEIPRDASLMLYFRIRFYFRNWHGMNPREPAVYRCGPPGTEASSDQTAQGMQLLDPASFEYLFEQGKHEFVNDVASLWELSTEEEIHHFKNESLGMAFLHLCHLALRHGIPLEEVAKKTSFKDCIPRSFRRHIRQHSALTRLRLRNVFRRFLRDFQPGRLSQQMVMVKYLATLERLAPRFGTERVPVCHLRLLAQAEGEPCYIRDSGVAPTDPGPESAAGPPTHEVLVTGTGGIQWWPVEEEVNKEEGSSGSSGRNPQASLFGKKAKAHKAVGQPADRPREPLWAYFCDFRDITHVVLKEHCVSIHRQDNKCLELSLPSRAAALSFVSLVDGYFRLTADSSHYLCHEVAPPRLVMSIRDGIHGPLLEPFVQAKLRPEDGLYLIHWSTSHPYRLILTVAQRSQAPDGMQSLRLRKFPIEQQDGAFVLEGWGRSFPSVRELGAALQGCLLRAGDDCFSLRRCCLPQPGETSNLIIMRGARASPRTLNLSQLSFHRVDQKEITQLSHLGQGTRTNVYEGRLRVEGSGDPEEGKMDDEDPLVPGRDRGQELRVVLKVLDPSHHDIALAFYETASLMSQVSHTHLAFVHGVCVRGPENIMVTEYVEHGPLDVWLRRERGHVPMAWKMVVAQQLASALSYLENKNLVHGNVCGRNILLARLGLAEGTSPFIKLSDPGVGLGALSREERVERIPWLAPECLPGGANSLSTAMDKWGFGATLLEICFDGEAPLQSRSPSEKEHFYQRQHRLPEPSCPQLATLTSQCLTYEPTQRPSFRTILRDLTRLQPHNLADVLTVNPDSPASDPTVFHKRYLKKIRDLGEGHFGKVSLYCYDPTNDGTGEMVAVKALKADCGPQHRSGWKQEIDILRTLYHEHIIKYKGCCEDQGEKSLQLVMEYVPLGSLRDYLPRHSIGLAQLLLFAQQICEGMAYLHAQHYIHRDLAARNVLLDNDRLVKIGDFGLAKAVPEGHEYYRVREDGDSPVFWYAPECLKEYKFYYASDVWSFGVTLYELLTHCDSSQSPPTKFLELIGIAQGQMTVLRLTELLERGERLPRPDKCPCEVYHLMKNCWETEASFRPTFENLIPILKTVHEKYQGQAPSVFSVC
SMILES,"TYK2 Degradation (NOMO-1, 100 nM) (TYK2 [1])","TYK2 Degradation (MOLT-4, 0.5 μM) (TYK2 [2])","TYK2 Degradation (MOLT-4, 5 μM) (TYK2 [2]; 5 μM)","TYK2 Degradation (NOMO-1, 10 nM) (TYK2 [1])",further results
"CNC(=O)c1nnc(NC(=O)CNC(=O)COc2cc(-c3scnc3C)ccc2CNC(=O)[C@@H]2C[C@@H](O)CN2C(=O)[C@@H](NC(=O)C2(F)CC2)C(C)(C)C)cc1Nc1cccc(-c2ncn(C)n2)c1OC [CPD-101, 6-(2-(2-(2-(((2S,4R)-1-((S)-2-(1-Fluorocyclopropane-1-carboxamido)-3,3-dimethylbutanoyl)-4-hydroxypyrrolidine-2-carboxamido)methyl)-5-(4-methylthiazol-5-yl)phenoxy)acetamido)acetamido)-4-((2-methoxy-3-(1-methyl-1H-1,2,4-triazol-3-yl)phenyl)amino)-N-methylpyridazine-3-carboxamide]",,C (C: ≤20% TYK2 degradation),C (C: ≤20% TYK2 degradation),,
"CNC(=O)c1nnc(NC(=O)CNC(=O)CCCCOc2cc(-c3scnc3C)ccc2CNC(=O)[C@@H]2C[C@@H](O)CN2C(=O)[C@@H](NC(=O)C2(F)CC2)C(C)(C)C)cc1Nc1cccc(-c2ncn(C)n2)c1OC [CPD-104, 6-(2-(5-(2-(((2S,4R)-1-((S)-2-(1-Fluorocyclopropane-1-carboxamido)-3,3-dimethylbutanoyl)-4-hydroxypyrrolidine-2-carboxamido)methyl)-5-(4-methylthiazol-5-yl)phenoxy)pentanamido)acetamido)-4-((2-methoxy-3-(1-methyl-1H-1,2,4-triazol-3-yl)phenyl)amino)-N-methylpyridazine-3-carboxamide]",,C (C: ≤20% TYK2 degradation),C (C: ≤20% TYK2 degradation),,
"CNC(=O)c1nnc(NC(=O)CNC(=O)CCCCCCCCNC(=O)C[C@H](NC(=O)[C@@H]2C[C@@H](O)CN2C(=O)[C@@H](NC(=O)C2(F)CC2)C(C)(C)C)c2ccc(-c3scnc3C)cc2)cc1Nc1cccc(-c2ncn(C)n2)c1OC [CPD-093, 6-(2-(9-((S)-3-((2S,4R)-1-((S)-2-(1-Fluorocyclopropane-1-carboxamido)-3,3-dimethylbutanoyl)-4-hydroxypyrrolidine-2-carboxamido)-3-(4-(4-methylthiazol-5-yl)phenyl)propanamido)nonanamido)acetamido)-4-((2-methoxy-3-(1-methyl-1H-1,2,4-triazol-3-yl)phenyl)amino)-N-methylpyridazine-3-carboxamide]",,C (C: ≤20% TYK2 degradation),C (C: ≤20% TYK2 degradation),,
"CNC(=O)c1nnc(NC(=O)CNC(=O)CCCCCCOc2cc(-c3scnc3C)ccc2CNC(=O)[C@@H]2C[C@@H](O)CN2C(=O)[C@@H](NC(=O)C2(F)CC2)C(C)(C)C)cc1Nc1cccc(-c2ncn(C)n2)c1OC [CPD-106, 6-(2-(7-(2-(((2S,4R)-1-((S)-2-(1-Fluorocyclopropane-1-carboxamido)-3,3-dimethylbutanoyl)-4-hydroxypyrrolidine-2-carboxamido)methyl)-5-(4-methylthiazol-5-yl)phenoxy)heptanamido)acetamido)-4-((2-methoxy-3-(1-methyl-1H-1,2,4-triazol-3-yl)phenyl)amino)-N-methylpyridazine-3-carboxamide]",,C (C: ≤20% TYK2 degradation),C (C: ≤20% TYK2 degradation),,
"CNC(=O)c1nnc(NC(=O)CNC(=O)CCOCCOCCOCCOCCOCCC(=O)N[C@H](C(=O)N2C[C@H](O)C[C@H]2C(=O)NCc2ccc(-c3scnc3C)cc2)C(C)(C)C)cc1Nc1cccc(-c2ncn(C)n2)c1OC [CPD-033, N^1—((S)-1-((2S,4R)-4-Hydroxy-2-((4-(4-methylthiazol-5-yl)benzyl)carbamoyl)pyrrolidin-1-yl)-3,3-dimethyl-1-oxobutan-2-yl)-N^19-(2-((5-((2-methoxy-3-(1-methyl-1H-1,2,4-triazol-3-yl)phenyl)amino)-6-(methylcarbamoyl)pyridazin-3-yl)amino)-2-oxoethyl)-4,7,10,13,16-pentaoxanonadecanediamide]",,,,,TYK2 Degradation (0.5 μM) (TYK2 [2]): ≤20%; TYK2 Degradation (5 μM) (TYK2 [2]; 5 μM): ≤20%
"CNC(=O)c1nnc(NC(=O)C2CC2)cc1Nc1cccc(-c2ncn(CCNC(=O)CNc3ccc4c(c3)C(=O)N(C3CCC(=O)NC3=O)C4=O)n2)c1OC (centres unmarked) [CPD-013, 6-(Cyclopropanecarboxamido)-4-((3-(1-(2-(2-((2-(2,6-dioxopiperidin-3-yl)-1,3-dioxoisoindolin-5-yl)amino)acetamido)ethyl)-1H-1,2,4-triazol-3-yl)-2-methoxyphenyl)amino)-N-methylpyridazine-3-carboxamide]",,,,,TYK2 Degradation (0.5 μM) (TYK2 [2]): ≤20%

# Now from value to molecule, other results behind:
"TYK2 Degradation (NOMO-1, 100 nM) (TYK2 [1])","TYK2 Degradation (MOLT-4, 0.5 μM) (TYK2 [2])","TYK2 Degradation (MOLT-4, 5 μM) (TYK2 [2]; 5 μM)",SMILES,"TYK2 Degradation (NOMO-1, 10 nM) (TYK2 [1])",further results
A (A: ≥60% TYK2 degradation),,,"CNC(=O)c1nnc(Nc2ccc(C#CC3CCN(C(=O)CCC(=O)N[C@H](C(=O)N4C[C@H](O)C[C@H]4C(=O)N[C@@H](C)c4ccc(-c5scnc5C)cc4)C(C)(C)C)CC3)cn2)cc1Nc1cccc(-c2ncn(C)n2)c1OC [CPD-116, 6-((5-((1-(4-(((S)-1-((2S,4R)-4-Hydroxy-2-(((S)-1-(4-(4-methylthiazol-5-yl)phenyl)ethyl)carbamoyl)pyrrolidin-1-yl)-3,3-dimethyl-1-oxobutan-2-yl)amino)-4-oxobutanoyl)piperidin-4-yl)ethynyl)pyridin-2-yl)amino)-4-((2-methoxy-3-(1-methyl-1H-1,2,4-triazol-3-yl)phenyl)amino)-N-methylpyridazine-3-carboxamide]",C (C: ≤20% TYK2 degradation),
A (A: ≥60% TYK2 degradation),,,"CNC(=O)c1cnc(Nc2ccc(N3CCN(C(=O)CCCCCCC(=O)N[C@H](C(=O)N4C[C@H](O)C[C@H]4C(=O)N[C@@H](C)c4ccc(-c5scnc5C)cc4)C(C)(C)C)CC3)cn2)cc1Nc1ccccc1OC [CDD-170, 6-((5-(4-(8-(((S)-1-((2S,4R)-4-hydroxy-2-(((S)-1-(4-(4-methylthiazol-5-yl)phenyl)ethyl)carbamoyl)pyrrolidin-1-yl)-3,3-dimethyl-1-oxobutan-2-yl)amino)-8-oxooctanoyl)piperazin-1-yl)pyridin-2-yl)amino)-4-((2-methoxyphenyl)amino)-N-methylnicotinamide]","B (B: <60% TYK2 degradation, and >20% TYK2 degradation)",
A (A: ≥60% TYK2 degradation),,,"CNC(=O)c1nnc(Nc2ccc(CNCCCCCCCC(=O)N[C@H](C(=O)N3C[C@H](O)C[C@H]3C(=O)N[C@@H](C)c3ccc(-c4scnc4C)cc3)C(C)(C)C)cn2)cc1Nc1cccc(-c2ncn(C)n2)c1OC [CPD-162, 6-((5-(((8-(((S)-1-((2S,4R)-4-hydroxy-2-(((S)-1-(4-(4-methylthiazol-5-yl)phenyl)ethyl)carbamoyl)pyrrolidin-1-yl)-3,3-dimethyl-1-oxobutan-2-yl)amino)-8-oxooctyl)amino)methyl)pyridin-2-yl)amino)-4-((2-methoxy-3-(1-methyl-1H-1,2,4-triazol-3-yl)phenyl)amino)-N-methylpyridazine-3-carboxamide]","B (B: <60% TYK2 degradation, and >20% TYK2 degradation)",
C (C: ≤20% TYK2 degradation),,,"CNC(=O)c1nnc(Nc2ccc(C(=O)NCCC(=O)N[C@H](C(=O)N3C[C@H](O)C[C@H]3C(=O)N[C@@H](C)c3ccc(-c4scnc4C)cc3)C(C)(C)C)cn2)cc1Nc1cccc(-c2ncn(C)n2)c1OC [CPD-138, 6-((5-((3-(((S)-1-((2S,4R)-4-Hydroxy-2-(((S)-1-(4-(4-methylthiazol-5-yl)phenyl)ethyl)carbamoyl)pyrrolidin-1-yl)-3,3-dimethyl-1-oxobutan-2-yl)amino)-3-oxopropyl)carbamoyl)pyridin-2-yl)amino)-4-((2-methoxy-3-(1-methyl-1H-1,2,4-triazol-3-yl)phenyl)amino)-N-methylpyridazine-3-carboxamide]",,
A (A: ≥60% TYK2 degradation),,,"CNC(=O)c1nnc(Nc2ccc(C#CC3CCN(C(=O)CCCCCC(=O)N[C@H](C(=O)N4C[C@H](O)C[C@H]4C(=O)N[C@@H](C)c4ccc(-c5scnc5C)cc4)C(C)(C)C)CC3)cn2)cc1Nc1cccc(-c2ncn(C)n2)c1OC [CPD-118, 6-((5-((1-(7-(((S)-1-((2S,4R)-4-Hydroxy-2-(((S)-1-(4-(4-methylthiazol-5-yl)phenyl)ethyl)carbamoyl)pyrrolidin-1-yl)-3,3-dimethyl-1-oxobutan-2-yl)amino)-7-oxoheptanoyl)piperidin-4-yl)ethynyl)pyridin-2-yl)amino)-4-((2-methoxy-3-(1-methyl-1H-1,2,4-triazol-3-yl)phenyl)amino)-N-methylpyridazine-3-carboxamide]","B (B: <60% TYK2 degradation, and >20% TYK2 degradation)",
